Measured values taken from patent US20110196000A1, “Use of succinate dehydrogenase (SDH) inhibitors in the treatment of plant species from the family of the true grasses” (Bayer CropScience AG, priority 2010, published 2011).

Columns and labels:
Assay type in all cases: in vivo
wheat variety Ritmo = experiment: Plot trial in Germany: green leaf area by visual scoring; conditions: for green leaf area of the flag leaf / green leaf area of the second-from-top leaf (F-1) / green leaf area of the third-from-top leaf (F-2): sprays at BBCH 39 and 59
In short: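 Field plot trial in Germany, wheat variety Ritmo, bixafen products sprayed sequentially at BBCH 39 and 59 at 400 l water/ha, 5 repetitions. Green leaf area duration followed by regular visual scoring of green leaf fraction.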

[1] = test system: infection-free wheat plants of the cultivar Passat; experiment: Glasshouse trial: yield components; conditions: for Ears/pot / Harvest Index / Kernels/ear / Straw / TKM (thousand-kernel mass) / Yield: glasshouse, sprays at BBCH 39 and 59
Wheat plants = experiment: Effect of single and double bixafen treatment on leaf area; conditions: for Area [rel.] of the flag leaf / Area [rel.] of the leaf F-1: untreated = 100
Experimental: Trial procedure: Wheat plants were treated at different development stages with bixafen once or twice (125 g/ha each time), and a measurement was made of the respective size of the flag leaf and of the leaf F-1 at the time BBCH 75. For the destructive measurement of the leaf area, the leaves were removed from the plant. The non-destructive measurement was carried out on the intact leaf of the plant.

[2] = 7 days after second fungicide application
[3] = 14 days after second fungicide application
[4] = 21 days after second fungicide application
[5] = 28 days after second fungicide application
[6] = 35 days after second fungicide application
[7] = 42 days after second fungicide application
[8] = 49 days after second fungicide application
[9] = treated at BBCH 33 (125 g/ha), measured at BBCH 75, destructive
[10] = treated at BBCH 33 (125 g/ha), measured at BBCH 75, non-destructive
[11] = treated at BBCH 33 + 39 (125 g/ha each time), measured at BBCH 75, destructive
[12] = treated at BBCH 33 + 39 (125 g/ha each time), measured at BBCH 75, non-destructive
[13] = treated at BBCH 33 + 59 (125 g/ha each time), measured at BBCH 75, destructive
[14] = treated at BBCH 33 + 59 (125 g/ha each time), measured at BBCH 75, non-destructive
[15] = treated at BBCH 39 (125 g/ha), measured at BBCH 75, destructive
[16] = treated at BBCH 39 (125 g/ha), measured at BBCH 75, non-destructive
[17] = treated at BBCH 39 + 59 (125 g/ha each time), measured at BBCH 75, destructive
[18] = treated at BBCH 39 + 59 (125 g/ha each time), measured at BBCH 75, non-destructive
[19] = treated at BBCH 59 (125 g/ha), measured at BBCH 75, destructive
[20] = treated at BBCH 59 (125 g/ha), measured at BBCH 75, non-destructive

With `Cn1cc(C(=O)Nc2ccc(F)cc2-c2ccc(Cl)c(Cl)c2)c(C(F)F)n1` [Bixafen, N-(3′,4′-dichloro-5-fluoro-1,1′-biphenyl-2-yl)-3-(difluoromethyl)-1-methyl-1H-pyrazole-4-carboxamide] the “green leaf area of the flag leaf” value (wheat variety Ritmo; [2]) was 98.9 % leaf area, the “green leaf area of the second-from-top leaf (F-1)” value (“green leaf area … (F-1)” below) (wheat variety Ritmo; [2]) was 98.4 % leaf area and the “green leaf area of the third-from-top leaf (F-2)” value (from here on “green leaf area … (F-2)”) (wheat variety Ritmo; [2]) was 96.4 % leaf area. For the same compound, the “green leaf area of the flag leaf” value (wheat variety Ritmo; [3]) was 98.7 % leaf area, the “green leaf area … (F-1)” value (wheat variety Ritmo; [3]) was 98.3 % leaf area and the “green leaf area … (F-2)” value (wheat variety Ritmo; [3]) was 96.3 % leaf area. The “green leaf area of the flag leaf” value (wheat variety Ritmo; [4]) was 98.8 % leaf area, the “green leaf area … (F-1)” value (wheat variety Ritmo; [4]) was 98.5 % leaf area and the “green leaf area … (F-2)” value (wheat variety Ritmo; [4]) was 94.5 % leaf area. The “green leaf area of the flag leaf” value (wheat variety Ritmo; [5]) was 96.7 % leaf area, the “green leaf area … (F-1)” value (wheat variety Ritmo; [5]) was 94.8 % leaf area and the “green leaf area … (F-2)” value (wheat variety Ritmo; [5]) was 91.8 % leaf area. The “green leaf area of the flag leaf” value (wheat variety Ritmo; [6]) was 73.0 % leaf area, the “green leaf area … (F-1)” value (wheat variety Ritmo; [6]) was 60.0 % leaf area and the “green leaf area … (F-2)” value (wheat variety Ritmo; [6]) was 37.5 % leaf area. For the same compound, the “green leaf area of the flag leaf” value (wheat variety Ritmo; [7]) was 26.7 % leaf area, the “green leaf area … (F-1)” value (wheat variety Ritmo; [7]) was 9.2 % leaf area and the “green leaf area … (F-2)” value (wheat variety Ritmo; [7]) was 3.4 % leaf area. For the same compound, the “green leaf area … (F-1)” value (wheat variety Ritmo; [8]) was 0 % leaf area, the “effect on the duration of the green leaf area of the wheat plant” value (wheat variety Ritmo; plot trial, statement in words) was “pronounced effect” and the “yield components compared with the other comparison fungicides” value ([1]; glasshouse trial, statement in words) was “a higher yield, a higher number of kernel/ear, a higher thousand-kernel mass and a lower straw fraction than the other comparison fungicides”. For the same compound, the Ears/pot [1] was 40.0, the “Harvest Index” value [1] was 29.8% and the Kernels/ear [1] was 25.1. The Straw [1] was 88.5 g/pot, the “TKM (thousand-kernel mass)” value [1] was 37.5 g and the Yield [1] was 37.5 g/pot. For the same compound, the “Area of the flag leaf” value (Wheat plants; [9]) was 32.13 cm^2, the “Area of the leaf F-1” value (Wheat plants; [9]) was 32.69 cm^2 and the “Length of the flag leaf” value (Wheat plants; [9]) was 28.25 cm. For the same compound, the “Length of the leaf F-1” value (Wheat plants; [9]) was 30.58 cm, the “Width of the flag leaf” value (Wheat plants; [9]) was 1.47 cm and the “Width of the leaf F-1” value (Wheat plants; [9]) was 1.35 cm. The “Area [rel.] of the flag leaf” value (Wheat plants; [9]) was 115 rel, the “Area [rel.] of the leaf F-1” value (Wheat plants; [9]) was 119 rel and the “Area of the flag leaf” value (Wheat plants; [10]) was 35.23 cm^2. The “Length of the flag leaf” value (Wheat plants; [10]) was 25.11 cm, the “Width of the flag leaf” value (Wheat plants; [10]) was 1.66 cm and the “Area [rel.] of the flag leaf” value (Wheat plants; [10]) was 109 rel. For the same compound, the “Area of the flag leaf” value (Wheat plants; [11]) was 29.38 cm^2, the “Area of the leaf F-1” value (Wheat plants; [11]) was 28.42 cm^2 and the “Length of the flag leaf” value (Wheat plants; [11]) was 24.49 cm. For the same compound, the “Length of the leaf F-1” value (Wheat plants; [11]) was 27.68 cm, the “Width of the flag leaf” value (Wheat plants; [11]) was 1.40 cm and the “Width of the leaf F-1” value (Wheat plants; [11]) was 1.27 cm. For the same compound, the “Area [rel.] of the flag leaf” value (Wheat plants; [11]) was 105 rel, the “Area [rel.] of the leaf F-1” value (Wheat plants; [11]) was 103 rel and the “Area of the flag leaf” value (Wheat plants; [12]) was 35.37 cm^2. The “Length of the flag leaf” value (Wheat plants; [12]) was 24.49 cm, the “Width of the flag leaf” value (Wheat plants; [12]) was 1.76 cm and the “Area [rel.] of the flag leaf” value (Wheat plants; [12]) was 109 rel. The “Area of the flag leaf” value (Wheat plants; [13]) was 31.28 cm^2, the “Area of the leaf F-1” value (Wheat plants; [13]) was 30.07 cm^2 and the “Length of the flag leaf” value (Wheat plants; [13]) was 27.10 cm. For the same compound, the “Length of the leaf F-1” value (Wheat plants; [13]) was 29.77 cm, the “Width of the flag leaf” value (Wheat plants; [13]) was 1.51 cm and the “Width of the leaf F-1” value (Wheat plants; [13]) was 1.30 cm. For the same compound, the “Area [rel.] of the flag leaf” value (Wheat plants; [13]) was 112 rel, the “Area [rel.] of the leaf F-1” value (Wheat plants; [13]) was 109 rel and the “Area of the flag leaf” value (Wheat plants; [14]) was 37.41 cm^2. The “Length of the flag leaf” value (Wheat plants; [14]) was 25.83 cm, the “Width of the flag leaf” value (Wheat plants; [14]) was 1.73 cm and the “Area [rel.] of the flag leaf” value (Wheat plants; [14]) was 115 rel. For the same compound, the “Area of the flag leaf” value (Wheat plants; [15]) was 29.04 cm^2, the “Area of the leaf F-1” value (Wheat plants; [15]) was 28.37 cm^2 and the “Length of the flag leaf” value (Wheat plants; [15]) was 25.81 cm. For the same compound, the “Length of the leaf F-1” value (Wheat plants; [15]) was 28.27 cm, the “Width of the flag leaf” value (Wheat plants; [15]) was 1.40 cm and the “Width of the leaf F-1” value (Wheat plants; [15]) was 1.19 cm. For the same compound, the “Area [rel.] of the flag leaf” value (Wheat plants; [15]) was 104 rel, the “Area [rel.] of the leaf F-1” value (Wheat plants; [15]) was 103 rel and the “Area of the flag leaf” value (Wheat plants; [16]) was 34.86 cm^2. The “Length of the flag leaf” value (Wheat plants; [16]) was 24.21 cm, the “Width of the flag leaf” value (Wheat plants; [16]) was 1.72 cm and the “Area [rel.] of the flag leaf” value (Wheat plants; [16]) was 108 rel. The “Area of the flag leaf” value (Wheat plants; [17]) was 32.44 cm^2, the “Area of the leaf F-1” value (Wheat plants; [17]) was 30.28 cm^2 and the “Length of the flag leaf” value (Wheat plants; [17]) was 26.57 cm. The “Length of the leaf F-1” value (Wheat plants; [17]) was 29.38 cm, the “Width of the flag leaf” value (Wheat plants; [17]) was 1.52 cm and the “Width of the leaf F-1” value (Wheat plants; [17]) was 1.20 cm. The “Area [rel.] of the flag leaf” value (Wheat plants; [17]) was 116 rel, the “Area [rel.] of the leaf F-1” value (Wheat plants; [17]) was 110 rel and the “Area of the flag leaf” value (Wheat plants; [18]) was 39.44 cm^2. For the same compound, the “Length of the flag leaf” value (Wheat plants; [18]) was 26.83 cm, the “Width of the flag leaf” value (Wheat plants; [18]) was 1.77 cm and the “Area [rel.] of the flag leaf” value (Wheat plants; [18]) was 122 rel. For the same compound, the “Area of the flag leaf” value (Wheat plants; [19]) was 32.37 cm^2, the “Area of the leaf F-1” value (Wheat plants; [19]) was 30.55 cm^2 and the “Length of the flag leaf” value (Wheat plants; [19]) was 26.58 cm. The “Length of the leaf F-1” value (Wheat plants; [19]) was 31.10 cm, the “Width of the flag leaf” value (Wheat plants; [19]) was 1.47 cm and the “Width of the leaf F-1” value (Wheat plants; [19]) was 1.26 cm. For the same compound, the “Area [rel.] of the flag leaf” value (Wheat plants; [19]) was 116 rel, the “Area [rel.] of the leaf F-1” value (Wheat plants; [19]) was 111 rel and the “Area of the flag leaf” value (Wheat plants; [20]) was 37.91 cm^2. For the same compound, the “Length of the flag leaf” value (Wheat plants; [20]) was 23.78 cm, the “Width of the flag leaf” value (Wheat plants; [20]) was 2.02 cm and the “Area [rel.] of the flag leaf” value (Wheat plants; [20]) was 117 rel.
In the case of `OC(Cc1ccccc1Cl)(Cn1nc[nH]c1=S)C1(Cl)CC1` (stereo not shown) [Prothioconazole], the “green leaf area of the flag leaf” value (wheat variety Ritmo; [2]) is reported as 98.8 % leaf area, the “green leaf area … (F-1)” value (wheat variety Ritmo; [2]) is reported as 97.8 % leaf area and the “green leaf area … (F-2)” value (wheat variety Ritmo; [2]) is reported as 96.1 % leaf area. For the same compound, the “green leaf area of the flag leaf” value (wheat variety Ritmo; [3]) was 98.2 % leaf area, the “green leaf area … (F-1)” value (wheat variety Ritmo; [3]) was 97.8 % leaf area and the “green leaf area … (F-2)” value (wheat variety Ritmo; [3]) was 95.9 % leaf area. For the same compound, the “green leaf area of the flag leaf” value (wheat variety Ritmo; [4]) was 98.1 % leaf area, the “green leaf area … (F-1)” value (wheat variety Ritmo; [4]) was 96.8 % leaf area and the “green leaf area … (F-2)” value (wheat variety Ritmo; [4]) was 94.9 % leaf area. For the same compound, the “green leaf area of the flag leaf” value (wheat variety Ritmo; [5]) was 94.0 % leaf area, the “green leaf area … (F-1)” value (wheat variety Ritmo; [5]) was 91.2 % leaf area and the “green leaf area … (F-2)” value (wheat variety Ritmo; [5]) was 83.7 % leaf area. The “green leaf area of the flag leaf” value (wheat variety Ritmo; [6]) was 58.8 % leaf area, the “green leaf area … (F-1)” value (wheat variety Ritmo; [6]) was 44.3 % leaf area and the “green leaf area … (F-2)” value (wheat variety Ritmo; [6]) was 25.3 % leaf area. The “green leaf area of the flag leaf” value (wheat variety Ritmo; [7]) was 13.8 % leaf area, the “green leaf area … (F-1)” value (wheat variety Ritmo; [7]) was 4.2 % leaf area and the “green leaf area … (F-2)” value (wheat variety Ritmo; [7]) was 0 % leaf area. For the same compound, the “green leaf area … (F-1)” value (wheat variety Ritmo; [8]) was 0 % leaf area, the Ears/pot [1] was 43.1 and the “Harvest Index” value [1] was 27.3%. For the same compound, the Kernels/ear [1] was 22.2, the Straw [1] was 85.4 g/pot and the “TKM (thousand-kernel mass)” value [1] was 33.5 g. For the same compound, the Yield [1] was 32.1 g/pot.
